Key:
Type in all cases: cell-based
Salmonella TA98 = assay: Salmonella plate-incorporation mutagenicity assay, strain TA98, with S9 mix; conditions: for Mutagenic potency, Revertants/µg ± S.E., TA98 / Mutagenicity call TA98: plate-incorporation, +S9
Salmonella TA100 = assay: Salmonella plate-incorporation mutagenicity assay, strain TA100; conditions: for Mutagenic potency, Revertants/µg ± S.E., TA100 / Mutagenicity call TA100: plate-incorporation, +S9
Salmonella TA104 = assay: Salmonella plate-incorporation mutagenicity assay, strain TA104, with S9 mix; conditions: for Mutagenic potency, Revertants/µg ± S.E., TA104: plate-incorporation, +S9
[1] = TA98 +S9, Test 1, 2 µg/plate, zero-dose 33/40/39
[2] = TA98 +S9, Test 1, 5 µg/plate, zero-dose 33/40/39
[3] = TA98 +S9, Test 1, 10 µg/plate, zero-dose 33/40/39
[4] = TA98 +S9, Test 1, 20 µg/plate, zero-dose 33/40/39
[5] = TA98 +S9, Test 1, 40 µg/plate, zero-dose 33/40/39
[6] = TA98 +S9, Test 1, 80 µg/plate, zero-dose 33/40/39
[7] = TA100 +S9, Test 1, 2 µg/plate, zero-dose 99/110/110
[8] = TA100 +S9, Test 1, 5 µg/plate, zero-dose 99/110/110
[9] = TA100 +S9, Test 1, 10 µg/plate, zero-dose 99/110/110
[10] = TA100 +S9, Test 1, 20 µg/plate, zero-dose 99/110/110
[11] = TA100 +S9, Test 1, 40 µg/plate, zero-dose 99/110/110
[12] = TA100 +S9, Test 1, 80 µg/plate, zero-dose 99/110/110
[13] = TA100 +S9, Test 2, 2 µg/plate, zero-dose 84/78/80
[14] = TA100 +S9, Test 2, 5 µg/plate, zero-dose 84/78/80
[15] = TA100 +S9, Test 2, 10 µg/plate, zero-dose 84/78/80
[16] = TA100 +S9, Test 3, 2 µg/plate, zero-dose 127/118/125
[17] = TA100 +S9, Test 3, 5 µg/plate, zero-dose 127/118/125
[18] = TA100 +S9, Test 3, 10 µg/plate, zero-dose 127/118/125
[19] = TA104 +S9, Test 2, 1 µg/plate, zero-dose 276/260/270
[20] = TA104 +S9, Test 2, 2 µg/plate, zero-dose 276/260/270
[21] = TA104 +S9, Test 2, 5 µg/plate, zero-dose 276/260/270
[22] = TA104 +S9, Test 2, 10 µg/plate, zero-dose 276/260/270
[23] = TA104 +S9, Test 3, 1 µg/plate, zero-dose 402/395/336
[24] = TA104 +S9, Test 3, 2 µg/plate, zero-dose 402/395/336
[25] = TA104 +S9, Test 3, 5 µg/plate, zero-dose 402/395/336
[26] = TA104 +S9, Test 3, 10 µg/plate, zero-dose 402/395/336
[27] = TA104 +S9, Test 4, 1 µg/plate, zero-dose 482/455/462

## c1ccc2c(c1)ccc1ccc3ccsc3c12 [P[4,3-b]T, Phenanthro[4,3-b]thiophene]
Salmonella TA98; [1]
  Rev/plate: 61 rev/plate
Salmonella TA98; [2]
  Rev/plate: 137 rev/plate
Salmonella TA98; [3]
  Rev/plate: 141 rev/plate
Salmonella TA98; [4]
  Rev/plate: 146 rev/plate
Salmonella TA98; [5]
  Rev/plate: 158 rev/plate
Salmonella TA98; [6]
  Rev/plate: 105 rev/plate
Salmonella TA98; TA98 +S9, Test 2, 1 µg/plate, zero-dose 43/41/30
  Rev/plate: 39/49
Salmonella TA98; TA98 +S9, Test 2, 2 µg/plate, zero-dose 43/41/30
  Rev/plate: 41/33
Salmonella TA98; TA98 +S9, Test 2, 5 µg/plate, zero-dose 43/41/30
  Rev/plate: 97/77
Salmonella TA98; TA98 +S9, Test 2, 10 µg/plate, zero-dose 43/41/30
  Rev/plate: 110/79
Salmonella TA98; TA98 +S9, Test 3, 1 µg/plate, zero-dose 49/50/50
  Rev/plate: 93/74
Salmonella TA98; TA98 +S9, Test 3, 2 µg/plate, zero-dose 49/50/50
  Rev/plate: 98/77
Salmonella TA98; TA98 +S9, Test 3, 5 µg/plate, zero-dose 49/50/50
  Rev/plate: 162/166
Salmonella TA98; TA98 +S9, Test 3, 10 µg/plate, zero-dose 49/50/50
  Rev/plate: 194/213
Salmonella TA98
  Mutagenic potency, Revertants/µg ± S.E., TA98: 13.7 ± 3.3 rev/µg
  Mutagenicity call TA98: (+) (Called mutagenic (+) based on showing reproducible, dose-related increases in rev/plate that reached or exceeded 2-fold relative to zero-dose controls)
Salmonella TA100; [7]
  Rev/plate: 172 rev/plate
Salmonella TA100; [8]
  Rev/plate: 194 rev/plate
Salmonella TA100; [9]
  Rev/plate: 190 rev/plate
Salmonella TA100; [10]
  Rev/plate: 125 rev/plate
Salmonella TA100; [11]
  Rev/plate: 188 rev/plate
Salmonella TA100; [12]
  Rev/plate: 164 rev/plate
Salmonella TA100; TA100 +S9, Test 2, 1 µg/plate, zero-dose 84/78/80
  Rev/plate: 80/84
Salmonella TA100; [13]
  Rev/plate: 92/89
Salmonella TA100; [14]
  Rev/plate: 116/108
Salmonella TA100; [15]
  Rev/plate: 119/98
Salmonella TA100; TA100 +S9, Test 3, 1 µg/plate, zero-dose 127/118/125
  Rev/plate: 142/160
Salmonella TA100; [16]
  Rev/plate: 185/164
Salmonella TA100; [17]
  Rev/plate: 218/248
Salmonella TA100; [18]
  Rev/plate: 274/291
Salmonella TA100; TA100 +S9, Test 4, 1 µg/plate, zero-dose 112/140/115
  Rev/plate: 160/156
Salmonella TA100; TA100 +S9, Test 4, 2 µg/plate, zero-dose 112/140/115
  Rev/plate: 164/156
Salmonella TA100; TA100 +S9, Test 4, 5 µg/plate, zero-dose 112/140/115
  Rev/plate: 218/198
Salmonella TA100; TA100 +S9, Test 4, 10 µg/plate, zero-dose 112/140/115
  Rev/plate: 275/234
Salmonella TA100
  Mutagenic potency, Revertants/µg ± S.E., TA100: 12.8 ± 3.9 rev/µg
  Mutagenicity call TA100: (+) (Called mutagenic (+) based on showing reproducible, dose-related increases in rev/plate that reached or exceeded 2-fold relative to zero-dose controls)
Salmonella TA104; [19]
  Rev/plate: 392/313
Salmonella TA104; [20]
  Rev/plate: 414/432
Salmonella TA104; [21]
  Rev/plate: 419/440
Salmonella TA104; [22]
  Rev/plate: 437/473
Salmonella TA104; [23]
  Rev/plate: 457/397
Salmonella TA104; [24]
  Rev/plate: 468/515
Salmonella TA104; [25]
  Rev/plate: 490/505
Salmonella TA104; [26]
  Rev/plate: 489/509
Salmonella TA104; [27]
  Rev/plate: 517/524
Salmonella TA104; TA104 +S9, Test 4, 2 µg/plate, zero-dose 482/455/462
  Rev/plate: 532/540
Salmonella TA104; TA104 +S9, Test 4, 5 µg/plate, zero-dose 482/455/462
  Rev/plate: 540/497
Salmonella TA104; TA104 +S9, Test 4, 10 µg/plate, zero-dose 482/455/462
  Rev/plate: 520/592
Salmonella TA104
  Mutagenic potency, Revertants/µg ± S.E., TA104: 58.9 ± 7.9 rev/µg

## O[C@@H]1c2ccccc2-c2c(ccc3sccc23)[C@H]1O (racemic) [P[3,4-b]T 6,7-diol, (± )-trans-6,7-Dihydrophenanthro[3,4-b]thiophene 6,7-diol]
Salmonella TA98; [1]
  Rev/plate: 45 rev/plate
Salmonella TA98; [2]
  Rev/plate: 47 rev/plate
Salmonella TA98; [3]
  Rev/plate: 61 rev/plate
Salmonella TA98; [4]
  Rev/plate: 62 rev/plate
Salmonella TA98; [5]
  Rev/plate: 107 rev/plate
Salmonella TA98; [6]
  Rev/plate: 130 rev/plate
Salmonella TA98; TA98 +S9, Test 2, 20 µg/plate, zero-dose 43/41/30
  Rev/plate: 64/63
Salmonella TA98; TA98 +S9, Test 2, 40 µg/plate, zero-dose 43/41/30
  Rev/plate: 72/84
Salmonella TA98; TA98 +S9, Test 2, 80 µg/plate, zero-dose 43/41/30
  Rev/plate: 146/141
Salmonella TA98; TA98 +S9, Test 2, 150 µg/plate, zero-dose 43/41/30
  Rev/plate: 207/190
Salmonella TA98; TA98 +S9, Test 3, 20 µg/plate, zero-dose 49/50/50
  Rev/plate: 90/111
Salmonella TA98; TA98 +S9, Test 3, 40 µg/plate, zero-dose 49/50/50
  Rev/plate: 132/132
Salmonella TA98; TA98 +S9, Test 3, 80 µg/plate, zero-dose 49/50/50
  Rev/plate: 181/199
Salmonella TA98; TA98 +S9, Test 3, 150 µg/plate, zero-dose 49/50/50
  Rev/plate: 241/222
Salmonella TA98
  Mutagenic potency, Revertants/µg ± S.E., TA98: 1.4 ± 0.2 rev/µg
  Mutagenicity call TA98: (+) (Called mutagenic (+) based on showing reproducible, dose-related increases in rev/plate that reached or exceeded 2-fold relative to zero-dose controls)
Salmonella TA100; [7]
  Rev/plate: 280 rev/plate
Salmonella TA100; [8]
  Rev/plate: 461 rev/plate
Salmonella TA100; [9]
  Rev/plate: 580 rev/plate
Salmonella TA100; [10]
  Rev/plate: 1052 rev/plate
Salmonella TA100; [11]
  Rev/plate: 1172 rev/plate
Salmonella TA100; [12]
  Rev/plate: 1286 rev/plate
Salmonella TA100; [13]
  Rev/plate: 224/217
Salmonella TA100; [14]
  Rev/plate: 369/364
Salmonella TA100; [15]
  Rev/plate: 746/565
Salmonella TA100; TA100 +S9, Test 2, 20 µg/plate, zero-dose 84/78/80
  Rev/plate: 593/607
Salmonella TA100; [16]
  Rev/plate: 305/298
Salmonella TA100; [17]
  Rev/plate: 573/564
Salmonella TA100; [18]
  Rev/plate: 862/714
Salmonella TA100; TA100 +S9, Test 3, 20 µg/plate, zero-dose 127/118/125
  Rev/plate: 1142/1113
Salmonella TA100
  Mutagenic potency, Revertants/µg ± S.E., TA100: 59.8 ± 6.1 rev/µg
  Mutagenicity call TA100: (+) (Called mutagenic (+) based on showing reproducible, dose-related increases in rev/plate that reached or exceeded 2-fold relative to zero-dose controls)
Salmonella TA104; [20]
  Rev/plate: 365/338
Salmonella TA104; [21]
  Rev/plate: 407/431
Salmonella TA104; [22]
  Rev/plate: 475/484
Salmonella TA104; TA104 +S9, Test 2, 20 µg/plate, zero-dose 276/260/270
  Rev/plate: 538/576
Salmonella TA104; [24]
  Rev/plate: 475/419
Salmonella TA104; [25]
  Rev/plate: 498/541
Salmonella TA104; [26]
  Rev/plate: 532/550
Salmonella TA104; TA104 +S9, Test 3, 20 µg/plate, zero-dose 402/395/336
  Rev/plate: 533/627
Salmonella TA104
  Mutagenic potency, Revertants/µg ± S.E., TA104: 24.9 ± 8.3 rev/µg

## Nc1ccc2cc3ccccc3cc2c1 [2-aminoanthracene, reference compound]
Salmonella TA104; TA104 +S9, Test 1, 0.1 µg/plate, zero-dose 379/400/370
  Rev/plate: 469/478
Salmonella TA104; TA104 +S9, Test 1, 0.25 µg/plate, zero-dose 379/400/370
  Rev/plate: 650/632
Salmonella TA104; TA104 +S9, Test 1, 0.5 µg/plate, zero-dose 379/400/370
  Rev/plate: 849/818
Salmonella TA104; TA104 +S9, Test 1, 1 µg/plate, zero-dose 379/400/370
  Rev/plate: 1004/998
Salmonella TA104; TA104 +S9, Test 1, 2 µg/plate, zero-dose 379/400/370
  Rev/plate: 1335/1432
Salmonella TA104; TA104 +S9, Test 2, 0.1 µg/plate, zero-dose 276/260/270
  Rev/plate: 366/337
Salmonella TA104; TA104 +S9, Test 2, 0.25 µg/plate, zero-dose 276/260/270
  Rev/plate: 521/530
Salmonella TA104; TA104 +S9, Test 2, 0.5 µg/plate, zero-dose 276/260/270
  Rev/plate: 764/666
Salmonella TA104; [19]
  Rev/plate: 983/956
Salmonella TA104; [20]
  Rev/plate: 1321/1392
Salmonella TA104; TA104 +S9, Test 3, 0.1 µg/plate, zero-dose 402/395/336
  Rev/plate: 444/419
Salmonella TA104; TA104 +S9, Test 3, 0.25 µg/plate, zero-dose 402/395/336
  Rev/plate: 570/588
Salmonella TA104; TA104 +S9, Test 3, 0.5 µg/plate, zero-dose 402/395/336
  Rev/plate: 822/811
Salmonella TA104; [23]
  Rev/plate: 1079/1097
Salmonella TA104; [24]
  Rev/plate: 1434/1518
Salmonella TA104; TA104 +S9, Test 4, 0.1 µg/plate, zero-dose 482/455/462
  Rev/plate: 573/564
Salmonella TA104; TA104 +S9, Test 4, 0.25 µg/plate, zero-dose 482/455/462
  Rev/plate: 699/711
Salmonella TA104; TA104 +S9, Test 4, 0.5 µg/plate, zero-dose 482/455/462
  Rev/plate: 864/989
Salmonella TA104; [27]
  Rev/plate: 1185/1181

— paper PMC2819846 (Mutation research, 2008)
